# Measurements published in patent publication US12612410B2 (CHILDREN'S HOSPITAL MEDICAL CENTER, priority 2020, dated 2026).
# Changes are numbered by the printed parent chain.
# Legend:
# FLT3 R834Q = biological target: T1, FLT3 R834Q (Homo sapiens, UniProt P36888, R834Q); experiment: DiscoverX KINOMEscan competition binding, FLT3 R834Q
# T1 construct: host or cells: E. coli BL21-derived host (T7 phage) or HEK-293
# T1 sequence (P36888 27-993 R834Q): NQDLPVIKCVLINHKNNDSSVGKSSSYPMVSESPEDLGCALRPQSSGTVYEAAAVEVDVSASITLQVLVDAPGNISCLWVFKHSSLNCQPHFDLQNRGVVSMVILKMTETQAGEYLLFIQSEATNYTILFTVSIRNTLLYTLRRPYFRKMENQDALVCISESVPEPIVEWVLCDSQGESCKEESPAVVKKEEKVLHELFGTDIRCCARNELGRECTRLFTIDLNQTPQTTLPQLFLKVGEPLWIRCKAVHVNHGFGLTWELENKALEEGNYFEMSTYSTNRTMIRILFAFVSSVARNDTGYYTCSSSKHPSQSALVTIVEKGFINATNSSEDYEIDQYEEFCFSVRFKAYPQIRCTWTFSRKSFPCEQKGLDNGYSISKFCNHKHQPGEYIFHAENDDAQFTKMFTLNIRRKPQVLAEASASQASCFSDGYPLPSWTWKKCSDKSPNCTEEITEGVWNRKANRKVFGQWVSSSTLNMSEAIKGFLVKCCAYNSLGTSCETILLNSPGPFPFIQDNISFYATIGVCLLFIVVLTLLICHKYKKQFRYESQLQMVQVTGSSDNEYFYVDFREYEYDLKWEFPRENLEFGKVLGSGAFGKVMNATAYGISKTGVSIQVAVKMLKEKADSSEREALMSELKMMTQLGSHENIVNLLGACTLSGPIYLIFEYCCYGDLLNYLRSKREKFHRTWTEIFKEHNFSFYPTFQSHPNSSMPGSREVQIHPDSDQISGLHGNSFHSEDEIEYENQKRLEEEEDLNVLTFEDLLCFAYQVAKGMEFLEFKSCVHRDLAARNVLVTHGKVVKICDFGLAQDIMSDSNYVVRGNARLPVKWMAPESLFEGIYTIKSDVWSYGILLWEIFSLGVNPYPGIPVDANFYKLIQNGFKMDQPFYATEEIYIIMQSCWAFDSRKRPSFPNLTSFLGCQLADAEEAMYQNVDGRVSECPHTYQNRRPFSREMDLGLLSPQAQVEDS
# From the text: (§1) Kinase binding data were obtained for various exemplary compounds prepared according to Examples 1-24 using the DiscoverX KINOMVIEscan® active site-directed competition binding site-directed assay protocol described below. […] As a result, the data report thermodynamic interaction affinities (Kd values), rather than IC50 values that are dependent on ATP concentrations. The assay uses a DNA-tagged version of the protein kinase, and an immobilized ligand bound to a solid support. Compounds that directly or indirectly prevent kinase binding to the immobilized ligand reduce the amount of kinase captured on the solid support, which is detected using an ultra-sensitive qPCR method. Affinity constants reported from the assay have been reported to be independent of the immobilized ligand used that is coupled to the solid support (See supplemental information in Fabian, M. A. et. al., (2005) Nat. Biotechnol. 23, 329-336; Wodicka, L. M. et. al., (2010) Chem. Biol. 17, 1241-1249.)
# (§2) Kinase-tagged T7 phage strains were prepared in an E. coli host derived from the BL21 strain. E. coli were grown to log-phase and infected with T7 phage and incubated with shaking at 32° C. until lysis. The lysates were centrifuged and filtered to remove cell debris. The remaining kinases were produced in HEK-293 cells and subsequently tagged with DNA for qPCR detection. Streptavidin-coated magnetic beads were treated with biotinylated small molecule ligands for 30 minutes at room temperature to generate affinity resins for kinase assays. The liganded beads were blocked with excess biotin and washed with blocking buffer (SeaBlock (Pierce), 1% BSA, 0.05% Tween 20, 1 mM DTT) to remove unbound ligand and to reduce non-specific binding. Binding reactions were assembled by combining kinases, liganded affinity beads, and test compounds in 1× binding buffer (20% SeaBlock, 0.17×PBS, 0.05% Tween 20, 6 mM DTT). Test compounds were prepared as 111× stocks in 100% DMSO. Kds were determined using an 11-point 3-fold compound dilution series with three DMSO control points. All compounds for Kd measurements are distributed by acoustic transfer (non-contact dispensing) in 100% DMSO. The compounds were then diluted directly into the assays such that the final concentration of DMSO was 0.9%. All reactions were performed in polypropylene 384-well plates. Each was a final volume of 0.02 mL. The assay plates were incubated at room temperature with shaking for 1 hour and the affinity beads were washed with wash buffer (1×PBS, 0.05% Tween 20). The beads were then re-suspended in elution buffer (1×PBS, 0.05% Tween 20, 0.5 μM nonbiotinylated affinity ligand) and incubated at room temperature with shaking for 30 minutes. The kinase concentration in the eluates was measured by qPCR.
# (§3) Binding constants (Kds) were calculated with a standard dose-response curve using the Hill equation. The Hill Slope was set to −1. Curves were fitted using a non-linear least square fit with the Levenberg-Marquardt algorithm.
# FLT3 D835H = biological target: T2, FLT3 D835H (Homo sapiens, UniProt P36888, D835H); experiment: DiscoverX KINOMEscan competition binding, FLT3 D835H
# T2 construct: host or cells: E. coli BL21-derived host (T7 phage) or HEK-293
# T2 sequence (P36888 27-993 D835H): T1 sequence (P36888 27-993 R834Q) with Q808R, D809H
# From the text: as §1, §2, §3
SMILES,Kd (FLT3 R834Q),Kd (FLT3 D835H)
"CC1(c2cn3c(-c4cccc(N[C@H]5CNC[C@@H]5F)n4)cnc3cn2)CC1 [Compound 1, N-((3S,4S)-4-fluoropyrrolidin-3-yl)-6-(6-(1-methylcyclopropyl)imidazo[1,2-a]pyrazin-3-yl)pyridin-2-amine]",0.17 nM,0.066 nM
"CC1(c2cn3c(-c4cccc(N[C@@H]5CCNC5)n4)cnc3cn2)CC1 [Compound 3, (R)-6-(6-(1-methylcyclopropyl)imidazo[1,2-a]pyrazin-3-yl)-N-(pyrrolidin-3-yl)pyridin-2-amine]",0.14 nM,0.059 nM
"CC1(c2cn3c(-c4cccc(N[C@H]5CNCC56CC6)n4)cnc3cn2)CC1 [Compound 5, (R)-N-(6-(6-(1-methylcyclopropyl)imidazo[1,2-a]pyrazin-3-yl)pyridin-2-yl)-5-azaspiro[2.4]heptan-7-amine]",0.13 nM,0.063 nM
"FC(F)(F)C1(c2cn3c(-c4cccc(N[C@@H]5CCNC5)n4)cnc3cn2)CC1 [Compound 10, (R)-N-(pyrrolidin-3-yl)-6-(6-(1-(trifluoromethyl)cyclopropyl)imidazo[1,2-a]pyrazin-3-yl)pyridin-2-amine]",0.81 nM,0.082 nM
"FC(F)c1cn2c(-c3cccc(N[C@H]4CNC[C@@H]4F)n3)cnc2cn1 [Compound 16, 6-(6-(difluoromethyl)imidazo[1,2-a]pyrazin-3-yl)-N-((3S,4S)-4-fluoropyrrolidin-3-yl)pyridin-2-amine]",1.3 nM,0.2 nM
"FC(F)c1cn2c(-c3cccc(N[C@H]4CNCC[C@@H]4F)n3)cnc2cn1 [Compound 25, 6-(6-(difluoromethyl)imidazo[1,2-a]pyrazin-3-yl)-N-((3S,4S)-4-fluoropiperidin-3-yl)pyridin-2-amine]",0.47 nM,0.18 nM
"CC(C)(O)c1cn2c(-c3cccc(N[C@@H]4CCCNC4)n3)cnc2cn1 [Compound 30, (R)-2-(3-(6-(piperidin-3-ylamino)pyridin-2-yl)imidazo[1,2-a]pyrazin-6-yl)propan-2-ol]",4.3 nM,1.2 nM
"CC(C)(O)c1cn2c(-c3cccc(N[C@H]4CNCC[C@@H]4F)n3)cnc2cn1 [Compound 31, 2-(3-(6-(((3S,4S)-4-fluoropiperidin-3-yl)amino)pyridin-2-yl)imidazo[1,2-a]pyrazin-6-yl)propan-2-ol]",2.2 nM,0.43 nM
"FC(F)(F)COc1cn2c(-c3cccc(N[C@@H]4CCNC4)n3)cnc2cn1 [Compound 38, (R)-N-(pyrrolidin-3-yl)-6-(6-(2,2,2-trifluoroethoxy)imidazo[1,2-a]pyrazin-3-yl)pyridin-2-amine]",1.2 nM,0.24 nM
"F[C@H]1CNC[C@@H]1Nc1cccc(-c2cnc3cnc(C4CC4)cn23)n1 [Compound 50, 6-(6-cyclopropylimidazo[1,2-a]pyrazin-3-yl)-N-((3S,4S)-4-fluoropyrrolidin-3-yl)pyridin-2-amine]",0.2 nM,0.032 nM
"Cn1cc(-c2cn3c(-c4cccc(N[C@H]5CNC[C@@H]5F)n4)cnc3cn2)cn1 [Compound 52, N-((3S,4S)-4-fluoropyrrolidin-3-yl)-6-(6-(1-methyl-1H-pyrazol-4-yl)imidazo[1,2-a]pyrazin-3-yl)pyridin-2-amine]",0.19 nM,0.078 nM
